ChEMBL document CHEMBL5465560, “Selectivity Literature for EUbOPEN Chemogenomic Library” (2024)

Legend:
[1] = target: Calcium/calmodulin-dependent protein kinase type II subunit delta (Homo sapiens) (UniProt Q13557); assay: Selectivity interaction (KinomeScan (DiscoverX)) EUB0001049a CAMK2D; details: at 1 µM
[2] = target: Tyrosine-protein kinase BTK (Homo sapiens, UniProt Q06187); assay: Selectivity interaction (Kinase panel (literature)) EUB0001199aCl BTK; details: at 1 µM
[3] = target: T1, Gamma-aminobutyric acid receptor subunit alpha-1 (Homo sapiens) (UniProt P14867); assay: Selectivity interaction (GPCR panel (PDSP screen)) EUB0001079a GABRA1; details: at 10 µM
T1 sequence (whole entry): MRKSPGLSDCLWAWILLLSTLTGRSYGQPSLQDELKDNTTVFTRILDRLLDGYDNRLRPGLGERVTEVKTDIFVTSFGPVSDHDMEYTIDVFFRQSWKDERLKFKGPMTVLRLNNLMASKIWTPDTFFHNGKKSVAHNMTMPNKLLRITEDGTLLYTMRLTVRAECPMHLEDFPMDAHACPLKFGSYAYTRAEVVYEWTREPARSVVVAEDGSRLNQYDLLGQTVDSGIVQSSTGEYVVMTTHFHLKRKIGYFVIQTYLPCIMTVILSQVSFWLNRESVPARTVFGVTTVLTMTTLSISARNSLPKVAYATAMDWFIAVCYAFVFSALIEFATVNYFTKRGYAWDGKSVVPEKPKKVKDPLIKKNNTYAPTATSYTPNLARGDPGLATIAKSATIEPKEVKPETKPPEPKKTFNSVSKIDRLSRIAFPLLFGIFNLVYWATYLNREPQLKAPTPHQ

[4] = target: T2, Tyrosine-protein kinase JAK1 (Homo sapiens, UniProt P23458); assay: Selectivity interaction (NanoBRET assay (HEK293T cells)) EUB0001558a JAK1; type: cell-based, HEK-293T
T2 sequence (P23458 whole entry): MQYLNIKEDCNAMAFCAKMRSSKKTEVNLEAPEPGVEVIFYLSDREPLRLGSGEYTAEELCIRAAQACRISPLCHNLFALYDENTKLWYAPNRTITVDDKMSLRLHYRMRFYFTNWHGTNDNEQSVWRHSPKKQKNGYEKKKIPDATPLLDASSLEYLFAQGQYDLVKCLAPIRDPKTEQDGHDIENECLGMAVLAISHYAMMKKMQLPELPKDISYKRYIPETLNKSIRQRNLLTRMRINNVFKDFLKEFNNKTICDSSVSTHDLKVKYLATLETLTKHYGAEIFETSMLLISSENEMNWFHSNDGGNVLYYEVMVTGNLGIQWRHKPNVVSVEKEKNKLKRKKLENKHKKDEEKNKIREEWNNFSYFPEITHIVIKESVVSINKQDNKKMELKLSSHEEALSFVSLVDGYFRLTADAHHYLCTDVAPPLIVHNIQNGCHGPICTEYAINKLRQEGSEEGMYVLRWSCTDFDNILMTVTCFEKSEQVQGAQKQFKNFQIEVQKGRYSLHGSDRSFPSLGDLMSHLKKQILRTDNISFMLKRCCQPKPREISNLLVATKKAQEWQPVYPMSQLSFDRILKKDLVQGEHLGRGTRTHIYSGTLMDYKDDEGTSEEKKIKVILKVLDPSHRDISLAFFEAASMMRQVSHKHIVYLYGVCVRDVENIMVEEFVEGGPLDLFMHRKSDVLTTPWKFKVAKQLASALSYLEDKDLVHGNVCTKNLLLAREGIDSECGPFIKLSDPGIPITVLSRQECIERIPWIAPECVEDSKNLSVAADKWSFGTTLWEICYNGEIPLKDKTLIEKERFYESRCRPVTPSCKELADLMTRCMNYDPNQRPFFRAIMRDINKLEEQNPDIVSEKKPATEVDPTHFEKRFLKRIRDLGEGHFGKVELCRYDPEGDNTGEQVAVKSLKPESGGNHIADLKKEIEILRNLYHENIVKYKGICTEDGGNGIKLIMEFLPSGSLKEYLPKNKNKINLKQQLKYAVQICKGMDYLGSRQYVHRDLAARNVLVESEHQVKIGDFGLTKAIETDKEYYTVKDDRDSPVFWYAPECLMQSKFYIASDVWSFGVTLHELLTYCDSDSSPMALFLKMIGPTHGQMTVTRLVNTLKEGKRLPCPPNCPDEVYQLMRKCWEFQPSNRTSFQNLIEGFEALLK

[5] = test system: Serine/threonine-protein kinase B-raf (Homo sapiens), P15056 [V600E]; details: at 10 µM
Sequence of Serine/threonine-protein kinase B-raf (Homo sapiens), P15056 [V600E] (P15056 whole entry V600E): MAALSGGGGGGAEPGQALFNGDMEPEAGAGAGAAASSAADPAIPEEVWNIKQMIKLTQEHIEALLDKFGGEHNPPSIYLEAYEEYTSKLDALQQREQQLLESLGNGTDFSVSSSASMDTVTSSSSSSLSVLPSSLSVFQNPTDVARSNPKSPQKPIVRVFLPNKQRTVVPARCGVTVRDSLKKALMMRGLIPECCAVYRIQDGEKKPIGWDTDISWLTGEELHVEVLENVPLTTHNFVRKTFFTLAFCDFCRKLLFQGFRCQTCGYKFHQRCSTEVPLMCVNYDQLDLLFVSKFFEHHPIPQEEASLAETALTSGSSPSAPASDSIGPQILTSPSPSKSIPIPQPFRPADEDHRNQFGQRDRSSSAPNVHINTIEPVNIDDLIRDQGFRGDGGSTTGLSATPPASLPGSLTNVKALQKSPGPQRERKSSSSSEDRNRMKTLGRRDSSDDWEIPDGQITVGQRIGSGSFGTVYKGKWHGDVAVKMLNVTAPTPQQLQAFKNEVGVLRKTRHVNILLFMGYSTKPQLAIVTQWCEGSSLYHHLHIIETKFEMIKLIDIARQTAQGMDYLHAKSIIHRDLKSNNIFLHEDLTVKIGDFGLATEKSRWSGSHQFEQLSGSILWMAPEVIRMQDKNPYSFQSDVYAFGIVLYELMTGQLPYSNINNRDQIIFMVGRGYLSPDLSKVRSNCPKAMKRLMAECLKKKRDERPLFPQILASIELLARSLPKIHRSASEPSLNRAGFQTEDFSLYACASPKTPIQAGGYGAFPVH

[6] = target: T3, Inhibitor of nuclear factor kappa-B kinase subunit epsilon (Homo sapiens) (UniProt Q14164); assay: Selectivity interaction (Kinase panel (Invitrogen)) EUB0000639a IKBKE; details: at 200 nM
T3 sequence (whole entry): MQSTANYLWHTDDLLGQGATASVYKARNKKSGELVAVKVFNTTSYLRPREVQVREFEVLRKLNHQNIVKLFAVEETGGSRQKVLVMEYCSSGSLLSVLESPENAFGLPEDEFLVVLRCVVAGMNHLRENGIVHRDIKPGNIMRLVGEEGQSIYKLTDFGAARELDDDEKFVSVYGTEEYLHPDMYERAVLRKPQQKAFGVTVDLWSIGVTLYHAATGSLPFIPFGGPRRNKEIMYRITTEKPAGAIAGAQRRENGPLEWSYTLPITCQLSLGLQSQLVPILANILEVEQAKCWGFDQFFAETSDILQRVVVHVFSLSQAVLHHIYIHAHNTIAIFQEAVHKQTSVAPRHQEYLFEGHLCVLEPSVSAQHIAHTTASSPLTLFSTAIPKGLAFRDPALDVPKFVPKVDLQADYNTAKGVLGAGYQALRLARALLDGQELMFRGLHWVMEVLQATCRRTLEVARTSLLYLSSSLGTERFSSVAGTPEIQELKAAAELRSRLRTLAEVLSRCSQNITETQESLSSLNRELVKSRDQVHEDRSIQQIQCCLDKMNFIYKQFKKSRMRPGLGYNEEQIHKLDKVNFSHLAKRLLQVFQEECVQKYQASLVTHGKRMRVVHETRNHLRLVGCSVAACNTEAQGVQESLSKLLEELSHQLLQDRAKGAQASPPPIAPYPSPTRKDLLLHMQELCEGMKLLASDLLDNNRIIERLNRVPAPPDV

[7] = target: Mitogen-activated protein kinase 10 (Homo sapiens, UniProt P53779); assay: Selectivity interaction (Kinase panel (Invitrogen)) EUB0000639a MAPK10; details: at 200 nM
Sequence of Mitogen-activated protein kinase 10 (P53779 whole entry): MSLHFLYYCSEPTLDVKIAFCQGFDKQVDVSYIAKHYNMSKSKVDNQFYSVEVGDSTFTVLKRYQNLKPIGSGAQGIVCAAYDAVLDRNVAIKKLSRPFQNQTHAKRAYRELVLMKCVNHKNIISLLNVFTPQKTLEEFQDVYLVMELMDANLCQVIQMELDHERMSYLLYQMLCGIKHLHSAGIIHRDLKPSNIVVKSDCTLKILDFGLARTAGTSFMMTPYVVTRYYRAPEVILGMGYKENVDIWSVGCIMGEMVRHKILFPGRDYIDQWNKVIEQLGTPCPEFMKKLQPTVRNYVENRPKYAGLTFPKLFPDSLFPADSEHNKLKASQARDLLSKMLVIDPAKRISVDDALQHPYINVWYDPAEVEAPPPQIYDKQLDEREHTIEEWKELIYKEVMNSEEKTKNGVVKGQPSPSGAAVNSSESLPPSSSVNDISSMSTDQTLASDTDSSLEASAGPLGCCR

[8] = target: T2, Tyrosine-protein kinase JAK1; assay: Selectivity interaction (ActivX KiNativ screen (kinase selectivity in THP-1 cell lysates)) EUB0000639a JAK1; type: subcellular; details: lysate, at 5 µM
[9] = target: Mitogen-activated protein kinase 6 (Homo sapiens) (UniProt Q16659); assay: Selectivity interaction (ActivX KiNativ screen (kinase selectivity in THP-1 cell lysates)) EUB0000639a MAPK6; type: subcellular; details: lysate
Sequence of Mitogen-activated protein kinase 6 (Homo sapiens) (Q16659 whole entry, canonical isoform): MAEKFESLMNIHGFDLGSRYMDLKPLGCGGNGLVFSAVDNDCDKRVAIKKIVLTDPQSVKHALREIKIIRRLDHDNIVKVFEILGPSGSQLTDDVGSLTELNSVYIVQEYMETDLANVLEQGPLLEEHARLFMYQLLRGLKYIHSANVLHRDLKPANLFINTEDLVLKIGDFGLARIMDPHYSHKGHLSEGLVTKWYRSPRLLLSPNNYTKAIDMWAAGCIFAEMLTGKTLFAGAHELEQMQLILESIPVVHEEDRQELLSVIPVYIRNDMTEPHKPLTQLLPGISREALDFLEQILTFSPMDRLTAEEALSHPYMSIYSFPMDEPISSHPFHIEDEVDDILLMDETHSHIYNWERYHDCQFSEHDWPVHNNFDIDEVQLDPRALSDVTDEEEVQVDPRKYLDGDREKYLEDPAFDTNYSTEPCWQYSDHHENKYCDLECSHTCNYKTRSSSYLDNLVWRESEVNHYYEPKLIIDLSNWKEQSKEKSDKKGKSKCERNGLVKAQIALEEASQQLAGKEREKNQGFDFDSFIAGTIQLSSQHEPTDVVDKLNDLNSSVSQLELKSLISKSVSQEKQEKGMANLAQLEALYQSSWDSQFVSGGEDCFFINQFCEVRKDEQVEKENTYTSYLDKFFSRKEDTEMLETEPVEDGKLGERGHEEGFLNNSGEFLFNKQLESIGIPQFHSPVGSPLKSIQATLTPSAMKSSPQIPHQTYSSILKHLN

[10] = target: Casein kinase I isoform gamma-3 (Homo sapiens) (UniProt Q9Y6M4); assay: Selectivity interaction (KinomeScan (DiscoverX)) EUB0000595a CSNK1G3; details: at 10 µM
[11] = target: Hepatocyte growth factor-like protein (Homo sapiens) (UniProt P26927); assay: Selectivity interaction (Ambit KINOMEscan and KiNATiv profiling in Jurkat cells) EUB0000090b MST1; type: cell-based; details: at 1 µM
[12] = target: Mitogen-activated protein kinase 4 (Homo sapiens) (UniProt P31152); assay: Selectivity interaction (Ambit KINOMEscan and KiNATiv profiling in Jurkat cells) EUB0000090b MAPK4; type: cell-based; details: at 1 µM
[13] = test system: Phosphatidylinositol 4,5-bisphosphate 3-kinase catalytic subunit alpha isoform (Homo sapiens), P42336 [C420R]; assay: (§1) Selectivity interaction (KinomeScan (DiscoverX)) EUB0000618a PIK3CA; details: at 10 µM
[14] = test system: Phosphatidylinositol 4,5-bisphosphate 3-kinase catalytic subunit alpha isoform (Homo sapiens), P42336 [E545A]; assay: as §1; details: at 10 µM
[15] = test system: Phosphatidylinositol 4,5-bisphosphate 3-kinase catalytic subunit alpha isoform (Homo sapiens), P42336 [E545K]; assay: as §1; details: at 10 µM
[16] = test system: Phosphatidylinositol 4,5-bisphosphate 3-kinase catalytic subunit alpha isoform (Homo sapiens), P42336 [E542K]; assay: as §1; details: at 10 µM
[17] = test system: Phosphatidylinositol 4,5-bisphosphate 3-kinase catalytic subunit alpha isoform (Homo sapiens), P42336 [M1043I]; assay: as §1; details: at 10 µM
Sequence of Phosphatidylinositol 4,5-bisphosphate 3-kinase catalytic subunit alpha isoform (Homo sapiens), P42336 [M1043I] (P42336 whole entry M1043I, canonical isoform): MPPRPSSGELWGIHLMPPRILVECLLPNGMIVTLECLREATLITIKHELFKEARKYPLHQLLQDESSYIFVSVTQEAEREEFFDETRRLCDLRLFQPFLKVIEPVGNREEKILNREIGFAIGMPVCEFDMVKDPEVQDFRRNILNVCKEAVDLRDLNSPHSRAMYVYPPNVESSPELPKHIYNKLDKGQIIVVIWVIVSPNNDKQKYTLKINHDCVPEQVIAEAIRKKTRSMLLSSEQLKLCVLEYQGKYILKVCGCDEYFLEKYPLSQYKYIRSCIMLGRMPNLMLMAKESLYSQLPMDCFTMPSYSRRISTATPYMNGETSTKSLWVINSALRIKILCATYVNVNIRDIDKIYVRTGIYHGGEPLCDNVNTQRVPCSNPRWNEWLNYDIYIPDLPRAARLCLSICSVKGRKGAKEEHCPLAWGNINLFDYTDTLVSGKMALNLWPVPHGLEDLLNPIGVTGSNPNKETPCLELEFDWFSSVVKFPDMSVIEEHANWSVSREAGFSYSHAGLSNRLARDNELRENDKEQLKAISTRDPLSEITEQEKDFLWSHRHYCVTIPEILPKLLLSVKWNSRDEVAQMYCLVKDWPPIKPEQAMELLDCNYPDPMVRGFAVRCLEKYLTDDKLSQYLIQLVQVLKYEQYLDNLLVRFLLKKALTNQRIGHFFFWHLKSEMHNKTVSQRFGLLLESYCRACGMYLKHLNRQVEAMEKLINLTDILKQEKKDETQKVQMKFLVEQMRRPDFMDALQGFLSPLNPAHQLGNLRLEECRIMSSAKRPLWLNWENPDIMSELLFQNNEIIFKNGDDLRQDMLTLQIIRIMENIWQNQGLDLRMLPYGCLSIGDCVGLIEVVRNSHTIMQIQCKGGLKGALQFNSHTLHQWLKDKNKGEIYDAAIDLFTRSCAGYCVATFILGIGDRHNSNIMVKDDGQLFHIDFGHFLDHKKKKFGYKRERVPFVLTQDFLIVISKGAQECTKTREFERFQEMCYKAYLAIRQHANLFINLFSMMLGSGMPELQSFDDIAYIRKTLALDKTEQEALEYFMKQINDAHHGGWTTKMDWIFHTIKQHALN

[18] = test system: Phosphatidylinositol 4,5-bisphosphate 3-kinase catalytic subunit alpha isoform (Homo sapiens), P42336 [H1047Y]; assay: as §1; details: at 10 µM
[19] = test system: Phosphatidylinositol 4,5-bisphosphate 3-kinase catalytic subunit alpha isoform (Homo sapiens), P42336 [H1047L]; assay: as §1; details: at 10 µM
[20] = target: Phosphatidylinositol 4,5-bisphosphate 3-kinase catalytic subunit alpha isoform (Homo sapiens) (UniProt P42336); assay: as §1; details: at 10 µM
[21] = test system: Phosphatidylinositol 4,5-bisphosphate 3-kinase catalytic subunit alpha isoform (Homo sapiens), P42336 [Q546K]; assay: as §1; details: at 10 µM
[22] = test system: Hepatocyte growth factor receptor (Homo sapiens), P08581 [Y1235D]; details: at 10 µM
[23] = target: Casein kinase I isoform epsilon (Homo sapiens, UniProt P49674); details: at 10 µM
[24] = target: Serine/threonine-protein kinase MRCK beta (Homo sapiens) (UniProt Q9Y5S2); assay: Selectivity interaction (KinomeScan (DiscoverX)) EUB0001619a CDC42BPB; details: at 1 µM
[25] = target: Phosphatidylinositol 4-phosphate 5-kinase type-1 gamma (Homo sapiens) (UniProt O60331); assay: Selectivity interaction (KinomeScan (DiscoverX)) EUB0000655a PIP5K1C; details: at 10 µM
[26] = target: Angiopoietin-1 receptor (Homo sapiens) (UniProt Q02763); assay: Selectivity interaction (ProQinase) EUB0000171b TEK; details: at 1 µM

Sequence of Tyrosine-protein kinase BTK (Q06187 whole entry): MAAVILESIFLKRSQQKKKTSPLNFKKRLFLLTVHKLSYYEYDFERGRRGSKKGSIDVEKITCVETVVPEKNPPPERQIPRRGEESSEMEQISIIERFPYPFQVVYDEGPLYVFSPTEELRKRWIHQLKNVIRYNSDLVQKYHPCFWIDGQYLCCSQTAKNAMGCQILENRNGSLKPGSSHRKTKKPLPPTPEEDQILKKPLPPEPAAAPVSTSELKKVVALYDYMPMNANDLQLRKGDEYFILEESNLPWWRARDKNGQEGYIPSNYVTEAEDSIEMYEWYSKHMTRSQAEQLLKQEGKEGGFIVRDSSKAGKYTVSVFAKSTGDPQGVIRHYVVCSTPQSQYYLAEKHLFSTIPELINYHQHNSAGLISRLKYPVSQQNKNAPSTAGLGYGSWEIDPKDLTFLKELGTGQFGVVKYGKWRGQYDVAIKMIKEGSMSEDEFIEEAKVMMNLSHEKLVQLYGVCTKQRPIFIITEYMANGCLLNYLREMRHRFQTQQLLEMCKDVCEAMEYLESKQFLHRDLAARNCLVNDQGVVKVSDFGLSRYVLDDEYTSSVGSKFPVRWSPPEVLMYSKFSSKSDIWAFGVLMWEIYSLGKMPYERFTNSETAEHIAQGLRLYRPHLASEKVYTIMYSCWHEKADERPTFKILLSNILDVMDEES

Structure (SMILES): COc1cc(Nc2nc(C)cc(-c3cnn4nc(OC)ccc34)n2)cc(C(F)(F)F)c1
- % of control [1]: 100%

Structure (SMILES): CN1Cc2nccc(-c3cn(C)nc3-c3ccc(F)cc3)c2C1=O
- % of inhibition [2]: 2%

Structure (SMILES): Nc1cnc(N2CCc3cc(S(=O)(=O)Nc4c(F)cc(Cl)cc4F)cc(N4CCCC4=O)c32)nc1 [TP-020n]
- % of inhibition [3]: 20.5%

Structure (SMILES): CC(C)(O)[C@H](F)CN1Cc2cc(NC(=O)c3cnn4cccnc34)c(N3CCOCC3)cc2C1=O
- EC50 [4]: > 50 µM

Structure (SMILES): CCN(CC)CCCCNc1ncc2cc(-c3cc(OC)cc(OC)c3)c(NC(=O)NC(C)(C)C)nc2n1
- % of control [5]: 100%

Structure (SMILES): CC[C@@H]1[C@H](F)C(=O)N[C@@H]1COc1nccc2cc(C(N)=O)c(OC)cc12 [ZIMLOVISERTIB]
- % of inhibition [6]: 2.32%
- % of inhibition [7]: 6.65%
- % of inhibition [8]: -5.3%
- % of inhibition ([9]; at 0.01 µM): -20%
- % of inhibition ([9]; at 0.04 µM): -5.5%
- % of inhibition ([9]; at 0.2 µM): -11.8%
- % of inhibition ([9]; at 1 µM): -1.3%
- % of inhibition ([9]; at 5 µM): -1%

Structure (SMILES): COCC(=O)NC/C=C/c1ccc2ncnc(Nc3ccc(Oc4ccc(C)nc4)c(C)c3)c2c1 [CP-724714]
- % of control [10]: 100%

Structure (SMILES): CN(C)C/C=C/C(=O)Nc1ccc(C(=O)N2CCCC(Nc3ncc(Cl)c(-c4c[nH]c5ccccc45)n3)C2)cc1 (stereo not given)
- % of control [11]: 78%
- % of control [12]: 64%

Structure (SMILES): O[C@H]1CC[C@H](Nc2ncc3nc(Nc4c(F)cc(F)cc4F)n([C@H]4CCOC4)c3n2)CC1
- % of control [13]: 100%
- % of control [14]: 100%
- % of control [15]: 100%
- % of control [16]: 100%
- % of control [17]: 100%
- % of control [18]: 100%
- % of control [19]: 100%
- % of control [20]: 100%
- % of control [21]: 100%

Structure (SMILES): Cc1cc([C@@H](C)Nc2ccccc2C(=O)O)c2nc(N3CCOCC3)cc(=O)n2c1 [AZD-6482]
- % of control [22]: 78%
- % of control [23]: 98%

Structure (SMILES): N#Cc1cccc(-c2c[nH]c3ncnc(N4CCOCC4)c23)c1
- % of control [24]: 83%

Structure (SMILES): CN(C)CCOc1ccc(-c2nc(-c3ccncc3)c(-c3ccc4c(c3)CC/C4=N\O)[nH]2)cc1
- % of control [25]: 52%

Structure (SMILES): C=CC(=O)Nc1cccc(C(=O)Nc2ccc(Nc3cc(-c4[nH]c(SC)nc4C)ccn3)cc2)c1
- % of control [26]: 95%
